Source: patent US9781927B2, “Microbicidal composition” (Dow Global Technologies LLC, priority 2016, dated 2017)

What was measured:
[1] = test system: Desulfovibrio longus ATCC 51456; assay: Biocidal efficacy and synergy of glutaraldehyde and Surf A-C against anaerobic sulfate-reducing bacteria (2 h kill, serial dilution enumeration); type: cell-based; settings: Glut part, 35° C.
Description: (§1) Surfactants and biocides were evaluated for synergy by determining the synergy index (S.I.) of the combination. Synergy index was calculated based the concentration required to achieve a certain level of bacterial kill when the two antimicrobial compounds (A and B) alone and in combinations. The tests organisms were anaerobic sulfate-reducing bacteria (Desulfovibrio longus ATCC #51456), facultative bacteria Pseudomonas aeruginosa ATCC #10145 and Staphylococcus aureus ATCC #6538, R^2O(CH2CH(CH3)O)3(CH2CH2O)7H Surf. A R^2O(CH2CH(CH3)O)3(CH2CH2O)5H Surf. B R^2O(CH2CH(CH3)O)3(CH2CH2O)13H Surf. C where R^2 is a mixture of C8-C14 linear alkyl groups.
Inside an anaerobic chamber (Bactron anaerobic chamber), a deoxygenated sterile salt solution (3.1183 g of NaCl, 1.3082 mg of NaHCO3, 47.70 mg of KCl, 72.00 mg of CaCl2, 54.49 mg of MgSO4, 172.28 mg of Na2SO4, 43.92 mg of Na2CO3 in 1 L water) was inoculated with Desulfovibrio longus ATCC 51456 to a final bacterial concentration of 10^6 to 10^7 CFU/mL. Aliquots of this cell suspension were then treated with glutaraldehyde, and each of Surf A-C at selected active concentrations. After incubation at 35° C. for 2 hours, viable bacteria in the aliquots were enumerated using serial dilution method.
(§2) SI is calculated as follows: Ca/CA+Cb/CB=Synergy Index (“SI”)
(§3) Wherein: • Ca=Concentration of biocide A required to achieve a certain level of bacterial kill when used in combination with B • CA=Concentration of biocide A required to achieve a certain level of bacterial kill when used alone • Cb=Concentration of biocide B required to achieve a certain level of bacterial kill when used in combination with A • CB=Concentration of biocide B required to achieve a certain level of bacterial kill when used alone When the sum of Ca/CA and Cb/CB is greater than one, antagonism is indicated.

[2] = test system: Pseudomonas aeruginosa ATCC 10145 and Staphylococcus aureus ATCC 6538; assay: Biocidal efficacy and synergy of glutaraldehyde and Surf. B against aerobic (facultative) bacteria (2 h kill, serial dilution enumeration); type: cell-based; settings: Glut part, alone (1:0) or in combination with Surf. B, 37° C., approximately 10^7 CFU/mL, 0.85% NaCl
Description: as §1, §2, §3
Sterile 0.85% NaCl solution was inoculated with approximately 10^7 CFU/mL of Pseudomonas aeruginosa ATCC 10145 and Staphylococcus aureus ATCC 6538. […]

SMILES: O=CCCCC=O [Glut, glutaraldehyde, (1,5-pentanedial) CAS No. 111-30-8]
- Concentration (active ppm) for complete bacterial kill in 2 hours, Glut ([1]; alone (1:0) or in combination with Surf C): 29.6 active ppm
- Concentration (active ppm) for 99.99% bacterial kill in 2 hours, Glut ([1]; alone (1:0) or in combination with Surf. A, 10^6 to 10^7 CFU/mL): 13.2 active ppm
- Concentration (active ppm) for more than 99.999% bacterial kill in 2 hours, Glut ([1]; alone (1:0) or in combination with Surf. B): 29.6 active ppm
- Concentration (active ppm) for more than 99.999% bacterial kill in 2 hours, Glut [2]: 29.6 active ppm
